Assay results: patent publication US20260041652A1, “SYSTEM AND METHOD FOR PREVENTING ALOPECIA” (Follea International, priority 2024, published 2026)

System: scalp hair follicles
Assay: Epilation force measured with trichotillometer vs placebo (Example 5)
Type: in vivo, human
Details: 10% solution vs placebo, average of 10 subjects; listed as 10% PE
Experimental: To evaluate the effect of a topically applied α1-AR agonist on the force required to pluck hairs from the scalp, a hand-held spring dynamometer, or “trichotillometer” was used (8). The trichotillometer records the maximum force threshold, in grams, required to pluck a single hair from the scalp; the performance and statistical variance of the instrument have been reported previously (8-10). Force measurements were performed using the trichotillometer on 10 subjects. The frontal area of scalp was divided into two 8×10 cm2 areas. On the right side 0.5 mL of a placebo vehicle was applied. […] After 45 minutes, ten hairs were plucked from each of the target areas with the trichotillometer.

CNC[C@H](O)c1cccc(O)c1 [phenylephrine]
average increase of epilation force threshold: 172%
